Test results from patent US5023322A, “Analogs of growth hormone releasing factor (GRF) and a method for the preparation thereof” (MTA Kutatas-es Szervezetelemzo Intezete, priority 1988, dated 1991).
No end group written: not given here.

Tests used:
milk production = details: cattle; J. Dairy Science 70, 2511 (1987) and 71, 92 (1988); cited from earlier work
growth hormone release [1] = assay: plasma GH level in anaesthetized rats after subcutaneous administration; format: in vivo, Wistar Amsterdam rats; details: administered subcutaneously, in the doses tested
Procedure: (§1) The biological effects of the compounds according to the invention were tested under in vitro and in vivo conditions. In both instances the growth hormone release was measured as a function of the concentration of the compound administered. The amount of growth hormone released was detected by radioimmune assay with a reliability limit of 95%. The results obtained were compared to those obtained when administering native hpGRF or hGRF(1-29)--NH2, respectively.
(§2) Mature male Wistar Amsterdam rats, weighing 250-300 g, were anaesthetized intraperitoneally with 60 mg/kg of pentobarbital. The peptides to be tested were dissolved in 0.9% by weight aqueous saline solution, and were administered to the animals 20 minutes after anaesthesy as an intravenous (i.v.), intramuscular (i.m.) or subcutaneous (s.c.) injection. Blood samples were taken from the jugular vein of the animals prior to the administration of the active agent (-1 minute) and 5, 15 and 30 minutes after challenge. The amount of growth hormone released was measured by radioimmune assay.
(§3) Therefore, in these tests the activity of the compounds according to the invention was characterized by the percentage increase in the plasma growth hormone level related to that originally present in the plasma (basal value).

growth hormone release [2] = assay: plasma GH level in anaesthetized rats after intramuscular administration; format: in vivo, Wistar Amsterdam rats; details: administered intramuscularly, in the doses tested
Procedure: as §1, §2, §3

[3] = literature; cited from earlier work
growth hormone release [4] = assay: plasma GH level in anaesthetized rats after intravenous administration; format: in vivo, Wistar Amsterdam rats; details: for Plasma GH level: i.v.
Procedure: as §1, §2
Therefore, when the compounds were administered intravenously, the percentage increase in activity was calculated by relating the amount of growth hormone released upon administering a compound of the invention to the amount of growth hormone released upon administering hGRF(1-29)--NH2.

Row | Substance | milk production of cattles, quality and quantity (in words) (milk production) | activity on growth hormone release (in words) (growth hormone release [1]) | activity on growth hormone release (in words) (growth hormone release [2]) | biological activity compared to the native hGRF(1-44)--NH2 (in words) [3] | release of growth hormone (in words) (growth hormone release [4]; administered intravenously) | Plasma GH level (growth hormone release [4]; 0.8 μg/kg, +5 min) | Plasma GH level (growth hormone release [4]; 0.8 μg/kg, +15 min) | Plasma GH level (growth hormone release [4]; 0.8 μg/kg, +30 min) | Plasma GH level (growth hormone release [4]; 0.8 μg/kg, -1 min (before administration)) | Plasma GH level (growth hormone release [4]; 2 μg/kg, +5 min) | Plasma GH level (growth hormone release [4]; 2 μg/kg, +15 min) | Plasma GH level (growth hormone release [4]; 2 μg/kg, +30 min) | Plasma GH level (growth hormone release [4]; 2 μg/kg, -1 min (before administration))
1 | hGRF(1-29)--NH2 (YADAIFTNSYRKVLGQLSARKLLQDIMSR-NH2; UniProt P01286 32-60, looked up, fragment) [Standard, fragment of the native human peptide amide extending from the N-terminal through residue 29; applied as standard] | influenced favourably | practically inactive | practically inactive | favourable activity | stimulated the release of growth hormone | 311.00 ng/mL | 93.60 ng/mL | 48.73 ng/mL | 80.46 ng/mL | 1061.11 ng/mL | 393.13 ng/mL | 109.22 ng/mL | 125.22 ng/mL
2 | human GRF(1-44)--NH2 (YADAIFTNSYRKVLGQLSARKLLQDIMSRQQGESNQERGARARL-NH2; UniProt P01286 32-75, looked up) [native human GRF, a peptide amide of 44 residues] | influenced favourably | – | – | – | – | – | – | – | – | – | – | – | –
